Experimental data taken from patent publication US12139729B2, “Neurodegenerative disorders” (priority 2013, dated 2024).
Where two headings read alike, the source gives them in different places. Residues, ends and D or L forms follow the SMILES beside them. No end group written: not given here.

Experiments:
[1] = target: T1, α7nAChR (the α7 nicotinic acetylcholine receptor), allosteric site (Rattus norvegicus, UniProt Q05941); assay: [3H] Ivermectin binding assay on PC12 cell membranes
T1 construct: [3H]; host or cells: wild-type PC12 cells
Description: PC12 membranes where obtained to perform binding assays. PC12 cells were grown until confluence on 100 mm plates. Growth medium was removed and ice-cold 50 mM Tris-HCl buffer (pH 7.4) containing 4.5 μg/μ1 aprotinin and 0.1 mM phenylmethylsulphonylfluoride (PMSF) were added. Cells were mechanically detached and pelleted by centrifugation (1040×g) for 4 minutes at 4° C. Pellets were homogenized with a Polytron and centrifuged (13000×g) for 20 minutes at 4° C. The pellets were resuspended in fresh buffer and incubated at 37° C. for 10 minutes to remove endogenous neurotransmitters. The samples were subsequently re-centrifuged. The final pellet was resuspended in buffer and the protein concentration determined using the Bradford Reagent (Sigma-Aldrich, St. Louis, MO). The cell membrane preparation was stored at −80° C.
For the binding with PC12 membranes, each incubation was performed in polystyrene tube (VWR International Ltd; Leicestershire, UK) containing 0.25 ml of membranes diluted in Tris-HCl 50 mM buffer (containing 50 μg of PC12 membranes) with 5 nM [3H] […] Thereafter, samples were filtered through Brandel GB glass fibre filters (MD, USA); pre-soaked in 0.5% polyethylenemine by a Harvester (Brandel; MD, USA). Tubes were washed 3 times with ice cold 50 mM Tris-HCl buffer. Radioactivity in the tubes was counted by scintillation spectrometry using a 300 SL Liquid scintillation counter (Lablogic Systems Limited, UK). Specific binding was determined by subtracting the non-specific (cells treated with Ivermectin 30 μM) value to all the tubes.

[2] = Cell Counting Kit-8 (CCK-8) cell viability assay; type: cell-based
Source text: A Cell Counting Kit-8 (CCK-8) was used as an improvement of the SRB technique used before. By utilizing the highly water-soluble tetrazolium salt WST-8, CCK-8 produces a water-soluble formazan dye upon reduction in the presence of an electron carrier. WST-8 is reduced by dehydrogenases in cells to give a yellow colored product (formazan), which is soluble in the tissue culture medium. The amount of the formazan dye generated by the activity of dehydrogenases in cells is directly proportional to the number of living cells. PC12 cells are plated in 200 μl of complete growth medium the day before the experiment in 96 well plates. Treatments with T30 and NBP-14 are added and incubated for 1 hour in the incubator.
Subsequently, 100 μl of growth medium is removed and 10 μl of CCK-8 (Cell Counting Kit-8) solution is added. The plate is incubated for 2 hours in the incubator and then placed in the absorbance plate reader. The absorbance must be measured at 450 nm.

[3] = tested on: PC12 cells; assay: AChE release / AChE activity in perfusate of treated PC12 cells (Ellman assay); type: cell-based
[4] = target: T2, α7 nicotinic receptor (Rattus norvegicus, UniProt Q05941); assay: Acetylcholine-induced calcium influx (Fluo-8) in PC12 cells; type: cell-based
T2 construct: [3H]; host or cells: wild-type PC12 cells
Description: PC12 cells are plated in 200 μl of complete growth medium the day before the experiment in 96 well plates. On the day of the experiment, the Fluo-8 solution (Abcam) is prepared (as provider protocol). Subsequently, 100 μl of growth medium is removed and 100 μl of Fluo-8 solution is added. Treatments with T30 and NBP-14 are added and incubated for 30 minutes in the incubator and 30 minutes room temperature.
After 1 hour, the plate is placed in the fluorescence plate reader (Fluostar). Before reading the fluorescence, acetylcholine (ACh) 100 μM is prepared and placed in the Fluostar injector. For each well, the reading will be formed by a basal fluorescence followed by acetylcholine injection that will induce an increase of calcium via nicotinic receptors. The effects of T30 and NBP-14 are then evaluated.

[5] = Sulforhodamine B (SRB) cell viability assay; type: cell-based; settings: 1 hour
Description: Wild-type PC12 cell were provided by Sigma-Aldrich (St. Louis, MO). The culture was routinely plated in 100 mm dishes (Corning) coated with collagen (2 μg/cm^2) and maintained in growth medium with Minimum Essential Medium Eagle (MEM) supplemented with heat-inactivated 10% horse serum (HS) and 5% foetal bovine serum (FBS), 10 mM HEPES, 2 mM L-Glutamine and 1:400 Penicillin/streptomycin solution. Cells were maintained at 37° C. in a humidified atmosphere 5% CO2 and the medium was replaced every 2 days. For splitting, cells were dislodged from the dish using a pipette with medium, with a portion of these replated onto new cultured dishes. Cells were used between passages 12 and 25.
The cell viability assay used was the sulforhodamine B (SRB) colorimetric assay for toxicity screening. The day before of the experiment cells were seeded onto collagen-coated 96-well plates in a concentration of 40,000 cells/well. Cell concentration was determined by the Fuchs-Rosenthal chamber. […] After treatment, medium was replaced and cells were fixed by adding 100 μl of 10% Trichloroacetic Acid (TCA) for 1 h at 4° C. Thereafter, cells were washed with H2O and stained with 100 μl of a 0.057% SRB solution in 1% Acetic acid (HAc) for 30 minutes at room temperature. After staining cells were washed with 1% HAc for removing the excess of SRB and then incubated with 200 μl of 10 mM Tris base (pH 10.5) and shake it for 5 minutes to solubilise the protein-bound dye. Measurement of the absorbance took place in a VMax Kinetic Microplate Reader (Molecular Devices) at 490 nm.

[6] = tested on: Aβ42; assay: ELISA detection of Aβ42 in cell culture media; type: cell-based; settings: 1 hour
Description: After 1 hour of treatment, the culture media was collected and diluted to 1:100, using culture media as diluent. Four repeats of each diluted sample were then placed in the plate provided by the ELISA detection kit, from AnaSpec (Fremont, CA, USA). The detection was then carried out following the manufacturer's protocol. Briefly, the sample was incubated for 4 h in presence of 50 μl of detection antibody. The plate was then washed seven times with the washing solution, the samples were then incubated with the 3,3′,5,5′-Tetramethylbenzidine (TMB) provided with the kit for 15 min. after the sample revelation the reaction was stopped with the stop solution and the optical density was read at 450 nm.
Accordingly, using immunodetection, the inventors have determined (i) APP levels and (ii) release of amyloid following administration of T30 (5 uM) and NBP14 (0.5 μM).

[7] = T30 5 uM + NBP-14 5 nM (1st of 10 values)
[8] = T30 5 uM + NBP-14 7 nM (2nd of 10 values)
[9] = T30 5 uM + NBP-14 9 nM (3rd of 10 values)
[10] = T30 5 uM + NBP-14 10 nM (4th of 10 values)
[11] = T30 5 uM + NBP-14 20 nM (5th of 10 values)
[12] = T30 5 uM + NBP-14 50 nM (6th of 10 values)
[13] = T30 5 uM + NBP-14 70 nM (7th of 10 values)
[14] = T30 5 uM + NBP-14, 9th of 10 values, concentration unclear
[15] = T30 5 uM + NBP-14, 10th of 10 values, concentration unclear

T2 sequence (Q05941 23-502): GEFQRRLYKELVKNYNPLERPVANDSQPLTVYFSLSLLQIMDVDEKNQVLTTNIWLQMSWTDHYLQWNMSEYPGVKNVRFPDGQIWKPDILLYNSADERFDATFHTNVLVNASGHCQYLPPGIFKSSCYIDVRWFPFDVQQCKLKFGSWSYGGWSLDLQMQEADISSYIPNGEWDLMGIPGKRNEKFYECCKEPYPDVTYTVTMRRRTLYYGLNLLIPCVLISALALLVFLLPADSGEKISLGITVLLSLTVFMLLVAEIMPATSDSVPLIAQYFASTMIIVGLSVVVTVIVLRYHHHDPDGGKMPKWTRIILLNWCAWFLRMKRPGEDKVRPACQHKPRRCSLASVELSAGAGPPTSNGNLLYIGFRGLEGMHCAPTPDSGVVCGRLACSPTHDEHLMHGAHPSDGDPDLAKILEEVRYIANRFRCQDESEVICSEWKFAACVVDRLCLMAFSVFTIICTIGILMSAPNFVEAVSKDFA
T1 sequence (Q05941 23-502): as above

For `CSCC[C@@H]1NC(=O)[C@H](Cc2ccc(O)cc2)NC(=O)[C@H](CO)NC(=O)[C@H](CO)NC(=O)[C@H](Cc2c[nH]c3ccccc23)NC(=O)[C@H](CCCNC(=N)N)NC(=O)[C@H](Cc2c[nH]cn2)NC(=O)[C@H](Cc2ccccc2)NC(=O)[C@H](CCC(=O)O)NC(=O)[C@H](C)NC(=O)[C@H](CCCCN)NC(=O)[C@H](Cc2c[nH]c3ccccc23)NC(=O)[C@H](Cc2c[nH]cn2)NC(=O)[C@H](C(C)C)NC1=O` [Cyclic T14] (cyclo(AEFHRWSSYMVHWK)), the “% [3H] Ivermectin binding (Mean ± SEM)” value ([1]; 100 nM competitor, Table 2, N = 6) was 98.10 ± 3.28%, the “% [3H] Ivermectin binding (Mean ± SEM)” value ([1]; 200 nM competitor, Table 2) was 80.81 ± 4.37% and the “% [3H] Ivermectin binding (Mean ± SEM)” value ([1]; 500 nM competitor, Table 2) was 79.72 ± 6.76%. For the same compound, the “% [3H] Ivermectin binding (Mean ± SEM)” value ([1]; 700 nM competitor, Table 2) was 62.26 ± 17.63%, the “% [3H] Ivermectin binding (Mean ± SEM)” value ([1]; 1 μM competitor, Table 2) was 29.006 ± 8.23% and the “% [3H] Ivermectin binding (Mean ± SEM)” value ([1]; 2 μM competitor, Table 2) was 13.46 ± 10.40%. The viability ([2]; T30 5 uM + NBP-14 5 nM (1st of 10 values), read-out: cell viability, T30 + NBP-14) was 76.2 ± 7.51%, the viability ([2]; T30 5 uM + NBP-14 7 nM (2nd of 10 values), read-out: cell viability, T30 + NBP-14) was 67 ± 4.35% and the viability ([2]; T30 5 uM + NBP-14 9 nM (3rd of 10 values), read-out: cell viability, T30 + NBP-14) was 76 ± 4.22%. For the same compound, the viability ([2]; T30 5 uM + NBP-14 10 nM (4th of 10 values), read-out: cell viability, T30 + NBP-14) was 71.4 ± 1.64%, the viability ([2]; T30 5 uM + NBP-14 20 nM (5th of 10 values), read-out: cell viability, T30 + NBP-14) was 79 ± 10.2% and the viability ([2]; T30 5 uM + NBP-14 50 nM (6th of 10 values), read-out: cell viability, T30 + NBP-14) was 75.2 ± 3.9%. The viability ([2]; T30 5 uM + NBP-14 70 nM (7th of 10 values), read-out: cell viability, T30 + NBP-14) was 62.4 ± 3.01%, the viability ([2]; T30 5 uM + NBP-14, 8th of 10 values, concentration unclear, read-out: cell viability, T30 + NBP-14) was 78.1 ± 2.16% and the viability ([2]; T30 5 uM + NBP-14, 9th of 10 values, concentration unclear, read-out: cell viability, T30 + NBP-14) was 117 ± 3.62%. The viability ([2]; T30 5 uM + NBP-14, 10th of 10 values, concentration unclear, read-out: cell viability, T30 + NBP-14) was 108 ± 5.1%, the “AChE activity, T14 combined with Cyclic T14” value ([3]; T14 10 μM + Cyclic T14 100 nM, 1 hour) was 112.30±1.39 and the “released AChE activity, T30 + NBP-14” value [3, 7] was 130.73±1.84%. For the same compound, the “released AChE activity, T30 + NBP-14” value [3, 8] was 111.68±2.26%, the “released AChE activity, T30 + NBP-14” value [3, 9] was 92.78±0.99% and the “released AChE activity, T30 + NBP-14” value [3, 10] was 82.56±2.38%. For the same compound, the “released AChE activity, T30 + NBP-14” value [3, 11] was 68.90±0.92%, the “released AChE activity, T30 + NBP-14” value [3, 12] was 65.12±1.32% and the “released AChE activity, T30 + NBP-14” value [3, 13] was 61.04±0.97%. For the same compound, the “released AChE activity, T30 + NBP-14” value ([3]; T30 5 uM + NBP-14, 8th of 10 values, concentration unclear) was 79.43±1.69%, the “released AChE activity, T30 + NBP-14” value [3, 14] was 83.91±1.24% and the “released AChE activity, T30 + NBP-14” value [3, 15] was 89.55±1.25%. For the same compound, the “concentration range protective against AChE compensatory effects” value ([3]; T30 5 uM, FIG. 14) was “high nanomolar concentrations”, the “calcium influx, T30 + NBP-14” value [4, 7] was 134.2497±6.85% and the “calcium influx, T30 + NBP-14” value [4, 8] was 120.8612±8.65%. For the same compound, the “calcium influx, T30 + NBP-14” value [4, 9] was 113.9162±8.82%, the “calcium influx, T30 + NBP-14” value [4, 10] was 140.776±12.16% and the “calcium influx, T30 + NBP-14” value [4, 11] was 115.83±7.67%. For the same compound, the “calcium influx, T30 + NBP-14” value [4, 12] was 110.3213±13.21%, the “calcium influx, T30 + NBP-14” value [4, 13] was 125.9596±0.1% and the “calcium influx, T30 + NBP-14” value ([4]; T30 5 uM + NBP-14, 8th of 10 values, only 9 concentrations printed (.. 70, 1000, 5000 nM), concentration unclear) was 99.85±0.32%. The “calcium influx, T30 + NBP-14” value [4, 14] was 115.1942±9.84%, the “calcium influx, T30 + NBP-14” value [4, 15] was 79.99±14.04% and the “concentration range protective against T30-induced calcium influx” value ([4]; T30 5 uM, FIG. 13) was “low nanomolar range”. The viability ([5]; T30 10 μM + Cyclic T14 100 nM, read-out: cell viability, T30 combined with Cyclic T14) was 88.6 ± 8.79%, the viability ([5]; cell viability, β-amyloid combined with Cyclic T14, β-Amyloid 10 μM + Cyclic T14 100 nM) was 94.5 ± 7.4% and the viability ([5]; cell viability, β-amyloid combined with Cyclic T14, β-Amyloid (10 μM) + Cyclic T14 0.5 nM) was 88.5 ± 10%. It also gave a viability ([5]; cell viability, β-amyloid combined with Cyclic T14, β-Amyloid (10 μM) + Cyclic T14 1 nM) of 97.3 ± 9.57%, a viability ([5]; cell viability, β-amyloid combined with Cyclic T14, β-Amyloid (10 μM) + Cyclic T14 10 nM) of 102 ± 8.53% and a viability ([5]; cell viability, β-amyloid combined with Cyclic T14, β-Amyloid (10 μM) + Cyclic T14 50 nM) of 102 ± 14%. It also gave a viability at 10 µM ([5]; cell viability, β-amyloid combined with Cyclic T14, β-Amyloid (10 μM) + Cyclic T14 'moo' (nM)) of 104 ± 6.34%, a viability at 1 h, 0.1 µM ([5]; rat, PC12 cells (wild-type), Cyclic T14 alone 100 nM, PC12) of 98.8 ± 15.2% and a viability at 1 h, 0.7 µM ([5]; rat, PC12 cells (wild-type), Cyclic T14 alone 700 nM, PC12) of 107 ± 19.9%. For the same compound, the viability at 1 h, 1 µM ([5]; rat, PC12 cells (wild-type), Cyclic T14 alone 1 μM, PC12) was 105 ± 10.9%, the viability at 1 h, 100 µM ([5]; rat, PC12 cells (wild-type), Cyclic T14 alone 100 μM, PC12) was 93.6 ± 11.6% and the “release of Aβ42 in presence of T30 and NBP-14” value ([6]; T30 (5 uM) + NBP14 (0.5 μM)) was “close to control”.

With “KAEFHRWSSYMVHWKNQFDHYSKQDRCSDL [T30, reference compound]” the “% [3H] Ivermectin binding (Mean ± SEM)” value ([1]; 1 nM competitor, Table 1) was 109.16 ± 11.9%, the “% [3H] Ivermectin binding (Mean ± SEM)” value ([1]; 10 nM competitor, Table 1) was 116.63 ± 13.25% and the “% [3H] Ivermectin binding (Mean ± SEM)” value ([1]; 100 nM competitor, Table 1) was 106.15 ± 8.04%. The “% [3H] Ivermectin binding (Mean ± SEM)” value ([1]; 1 μM competitor, Table 1) was 97.41 ± 7.9%, the “% [3H] Ivermectin binding (Mean ± SEM)” value ([1]; 5 μM competitor, Table 1) was 80.22 ± 3.81% and the viability ([2]; T30 5 uM alone, 1 hour, N=3, read-out: cell viability) was 74.3%. For the same compound, the cytotoxicity ([2]; T30 5 uM, read-out: decrease of cell viability) was 25%, the “AChE activity, peptide alone” value ([3]; 10 μM, 1 hour, PC12) was 129.10±1.18 and the “released AChE activity” value ([3]; T30 5 uM alone, N=3) was 169.45%±2.11. The “increase of calcium influx” value ([4]; PC12 cells) was “about 70%”, the “calcium influx (acetylcholine control = 100%)” value ([4]; T30 5 uM alone, ACh 100 μM, N=3) was 171.05%±6.21 and the viability at 10 µM ([5]; 10 μM, PC12, read-out: cell viability, peptide alone) was 68.4 ± 3.1%. The “release of Aβ42 compared to control” value ([6]; T30 (5 uM)) was “approximately 175%”.
